Data published in patent US7816323B2, “Methods of using corticotropin-releasing factor for the use of the treatment of cancer” (priority 2008, dated 2010).

How the values were obtained:
[1] = tested on: human glioblastoma cell line U87 Flue; test: Brain tumor-bearing SCID mice (U87 Flue glioblastoma), 80-day survival and tumor progression study
Text: The U87 Flue cell line was created by stably transducing U87 cells with a lentiviral construct containing the luc gene.

malignant brain tumor = test: Clinical study of CRF in patients with malignant brain tumor (tumor size by MRI, survival); assay type: in vivo, human
Experimental: Patients with malignant brain tumor were treated with 2 mg/day (1 mg dose, twice daily) of either human CRF subcutaneously. […] Additionally, of the 30 patients who had received treatment for at least 6 months, 10 experienced a decrease in tumor size.

peritumoral edema = details: patients with peritumoral edema; cited from earlier work
[2] = high dose of CRF, 80-day study period

O=NN(CCCl)C(=O)NCCCl [BiCNU, reference compound]
brain tumor growth / response to treatment (photon emission) ([1]; chemotherapeutic agents, TMZ: all mice but one): continued to grow

Cn1nnc2c(C(N)=O)ncn2c1=O [TMZ, reference compound]
mice still alive at the end of the 80-day study period ([1]; TMZ-treated mice): 40%

CRF: endogenous 41 amino acid peptide, the major hypothalamic hormone responsible for stimulation of the pituitary-adrenal axis
patients exhibiting a reduction in tumor size of around 90% (malignant brain tumor; FIG. 2 patients, 2 mg/day s.c.): two
survival of some patients after CRF treatment (malignant brain tumor; FIGS. 1 and 2): 1-2 years
survival of the overwhelming majority of patients (malignant brain tumor; FIGS. 1 and 2, projected survival 3-6 months): live well beyond the projected 3-6 months
metastatic patients exhibiting survival beyond the projected 3-6 months (malignant brain tumor; of the 3 metastatic patients in FIG. 3): 3 patients
metastatic patients showing a reduction in tumor size at the last timepoint measured (malignant brain tumor; of the 3 metastatic patients in FIG. 3, 2 mg/day s.c.): 2 patients
patients exhibiting a reduction in tumor size at the last time point measured (malignant brain tumor; of the 10 patients in FIG. 2, 2 mg/day s.c.): 8 patients
patients exhibiting a maintenance in tumor size (malignant brain tumor; of the 20 patients in FIG. 1, 2 mg/day s.c.): 5 patients
patients exhibiting a reduction in tumor size (malignant brain tumor; of the 20 patients in FIG. 1, 2 mg/day s.c. (1 mg twice daily)): 6 patients
patients exhibiting a reduction in tumor size by over 50% (malignant brain tumor; of the 20 patients in FIG. 1, after 9 months of treatment, 2 mg/day s.c.): 3 patients
patients experiencing a decrease in tumor size (malignant brain tumor; of the 30 patients treated for at least 6 months): 10 patients
survival over the 80-day study period ([1]; high dose of CRF, 100 μg/kg s.c. twice daily, all mice): survived the entire 80-day study period
brain tumor progression (luminescence imaging) [1, 2]: did not progress during the 80-day study period
health appearance of the mice during the study [1, 2]: appeared healthy throughout
brain tumor progression (luminescence imaging) ([1]; low dose of CRF): did not progress or progressed more slowly
mean survival time ([1]; low dose of CRF): between mice, that were administered a high dose of CRF, and mice that had received no treatment or were administered dexamethasone
mice still alive at the end of the 80-day study period ([1]; low dose of CRF): 60%

corticorelin acetate
exposure to dexamethasone (peritumoral edema): reduced exposure to dexamethasone
steroid-related side effects (peritumoral edema): improvement in steroid-related side effects
